# Data: ChEMBL document CHEMBL4831542, “Design, Synthesis, and Biological Evaluation of Icaritin Derivatives as Novel Putative DEPTOR Inhibitors for Multiple Myeloma Treatment” (J Med Chem, 2021)
# Calls of active or inactive are those of the source. The calls are words filed in the database; no cut-off is given here.
# Key:
# RPMI-8226 [1] = assay: Antiproliferative activity against human RPMI8226 cells assessed as inhibition of cell proliferation at 125 uM incubated for 72 hrs by CCK8 assay; assay type: functional
# RPMI-8226 [2] = assay: cells; details: Homo sapiens, RPMI-8226, 72 h
# Description: Antiproliferative activity against human RPMI-8226 cells assessed as inhibition of cell proliferation incubated for 72 hrs by CCK8 assay
# RPMI-8226 [3] = assay: Antiproliferative activity against human RPMI8226 cells assessed as inhibition of cell proliferation at 250 uM incubated for 72 hrs by CCK8 assay; assay type: functional
# RPMI-8226 [4] = assay: Cell cycle arrest in human RPMI8226 cells assessed as accumulation of cells at G2 phase at 2 uM measured after 36 hrs by flow cytometry (reference value: 27.03%); assay type: functional
# RPMI-8226 [5] = assay: Induction of apoptosis in human RPMI8226 cells assessed as necrotic cells at 2 uM measured after 36 hrs by Annexin V-FITC based flow cytometry (reference value: 0.03%); assay type: functional
# RPMI-8226 [6] = assay: Cell cycle arrest in human RPMI8226 cells assessed as accumulation of cells at G1 phase at 2 uM measured after 36 hrs by flow cytometry (reference value: 22.95%); assay type: functional
# MOLT-4 = assay: cells; details: Homo sapiens, MOLT-4, 72 h
# Description: Antiproliferative activity against human MOLT-4 cells assessed as inhibition of cell proliferation incubated for 72 hrs by CCK8 assay
# RPMI-8226 [7] = assay: Induction of apoptosis in human RPMI8226 cells assessed as viable cells at 4 uM measured after 36 hrs by Annexin V-FITC based flow cytometry (reference value: 91.68%); assay type: functional; details: read-out: Activity
# U-266 = assay: cells; details: Homo sapiens, U-266, 72 h
# Description: Antiproliferative activity against human U266 cells assessed as inhibition of cell proliferation incubated for 72 hrs by CCK8 assay
# RPMI-8226 [8] = assay: Cell cycle arrest in human RPMI8226 cells assessed as accumulation of cells at S phase at 1 uM measured after 36 hrs by flow cytometry (reference value: 50.02%); assay type: functional
# RPMI-8226 [9] = assay: Antitumor activity against human RPMI8226 cells xenografted in BALB/c mouse assessed as reduction in tumor weight at 100 to 200 mg/kg, po once a day for 3 weeks; assay type: functional, organism-based; details: dose 100-200 mg/kg
# RPMI-8226 [10] = assay: Antitumor activity against human RPMI8226 cells xenografted in BALB/c mouse assessed as tumor growth inhibition at 200 mg/kg, po once a day for 3 weeks relative to control; assay type: functional; details: RPMI-8226, po, 504 h, read-out: TGI
# RPMI-8226 [11] = assay: Induction of apoptosis in human RPMI8226 cells assessed as necrotic cells at 4 uM measured after 36 hrs by Annexin V-FITC based flow cytometry (reference value: 0.03%); assay type: functional
# RPMI-8226 [12] = assay: Cell cycle arrest in human RPMI8226 cells assessed as accumulation of cells at G1 phase at 4 uM measured after 36 hrs by flow cytometry (reference value: 22.95%); assay type: functional
# RPMI-8226 [13] = assay: Induction of apoptosis in human RPMI8226 cells assessed as early apoptotic cells at 2 uM measured after 36 hrs by Annexin V-FITC based flow cytometry (reference value: 7.48%); assay type: functional
# HL-60 = assay: cells; details: Homo sapiens, HL-60, 72 h
# Description: Antiproliferative activity against human HL-60 cells assessed as inhibition of cell proliferation incubated for 72 hrs by CCK8 assay
# RPMI-8226 [14] = assay: Induction of apoptosis in human RPMI8226 cells assessed as viable cells at 2 uM measured after 36 hrs by Annexin V-FITC based flow cytometry (reference value: 91.68%); assay type: functional; details: read-out: Activity
# SiHa = assay: cells; details: Homo sapiens, 72 h
# Description: Antiproliferative activity against human SiHa cells assessed as inhibition of cell proliferation incubated for 72 hrs by CCK8 assay
# RPMI-8226 [15] = assay: Induction of apoptosis in human RPMI8226 cells assessed as early apoptotic cells at 1 uM measured after 36 hrs by Annexin V-FITC based flow cytometry (reference value: 7.48%); assay type: functional
# RPMI-8226 [16] = assay: Induction of apoptosis in human RPMI8226 cells assessed as viable cells at 1 uM measured after 36 hrs by Annexin V-FITC based flow cytometry (reference value: 91.68%); assay type: functional; details: read-out: Activity
# RPMI-8226 [17] = assay: Cell cycle arrest in human RPMI8226 cells assessed as accumulation of cells at S phase at 4 uM measured after 36 hrs by flow cytometry (reference value: 50.02%); assay type: functional
# MGC-803 = assay: cells; details: Homo sapiens, MGC-803, 72 h
# Description: Antiproliferative activity against human MGC-803 cells assessed as inhibition of cell proliferation incubated for 72 hrs by CCK8 assay
# U2OS = assay: cells; details: Homo sapiens, 72 h
# Description: Antiproliferative activity against human U2OS cells assessed as inhibition of cell proliferation incubated for 72 hrs by CCK8 assay
# U-251 = assay: cells; details: Homo sapiens, U-251, 72 h
# Description: Antiproliferative activity against human U251 cells assessed as inhibition of cell proliferation incubated for 72 hrs by CCK8 assay
# RPMI-8226 [18] = assay: Cell cycle arrest in human RPMI8226 cells assessed as accumulation of cells at G1 phase at 1 uM measured after 36 hrs by flow cytometry (reference value: 22.95%); assay type: functional
# RPMI-8226 [19] = assay: Reduction in DEPTOR mRNA expression in human RPMI8226 cells by quantitative PCR analysis relative to control; assay type: functional, cell-based; details: dose 1-4 µM
# RPMI-8226 [20] = assay: Induction of apoptosis in human RPMI8226 cells assessed as late apoptotic cells at 4 uM measured after 36 hrs by Annexin V-FITC based flow cytometry (reference value: 0.81%); assay type: functional
# RPMI-8226 [21] = assay: Antitumor activity against human RPMI8226 cells xenografted in BALB/c mouse assessed as tumor growth inhibition at 100 mg/kg, po once a day for 3 weeks relative to control; assay type: functional; details: RPMI-8226, po, 504 h, read-out: TGI
# RPMI-8226 [22] = assay: Reduction in DEPTOR protein expression in human RPMI8226 cells incubated for 24 hrs by Western blot analysis; assay type: functional, cell-based; details: dose 1-4 µM
# HepG2 = assay: cells; details: Homo sapiens, HepG2, 72 h
# Description: Antiproliferative activity against human HepG2 cells assessed as inhibition of cell proliferation incubated for 72 hrs by CCK8 assay
# RPMI-8226 [23] = assay: Cell cycle arrest in human RPMI8226 cells assessed as accumulation of cells at G2 phase at 4 uM measured after 36 hrs by flow cytometry (reference value: 27.03%); assay type: functional
# [24] = Toxicity in BALB/c mouse xenografted with human RPMI8226 cells assessed as change in body weight at 100 to 200 mg/kg, po once a day for 3 weeks; assay type: organism-based, RPMI-8226; details: in vivo, 504 h, dose 100-200 mg/kg
# RPMI-8226 [25] = assay: Cell cycle arrest in human RPMI8226 cells assessed as accumulation of cells at S phase at 2 uM measured after 36 hrs by flow cytometry (reference value: 50.02%); assay type: functional
# MCF7 = assay: cells; details: Homo sapiens, MCF7, 72 h
# Description: Antiproliferative activity against human MCF7 cells assessed as inhibition of cell proliferation incubated for 72 hrs by CCK8 assay
# RPMI-8226 [26] = assay: Induction of apoptosis in human RPMI8226 cells assessed as necrotic cells at 1 uM measured after 36 hrs by Annexin V-FITC based flow cytometry (reference value: 0.03%); assay type: functional
# DLD-1 = assay: cells; details: Homo sapiens, DLD-1, 72 h
# Description: Antiproliferative activity against human DLD1 cells assessed as inhibition of cell proliferation incubated for 72 hrs by CCK8 assay
# RPMI-8226 [27] = assay: Induction of apoptosis in human RPMI8226 cells assessed as early apoptotic cells at 4 uM measured after 36 hrs by Annexin V-FITC based flow cytometry (reference value: 7.48%); assay type: functional
# RPMI-8226 [28] = assay: Cell cycle arrest in human RPMI8226 cells assessed as accumulation of cells at G2 phase at 1 uM measured after 36 hrs by flow cytometry (reference value: 27.03%); assay type: functional
# NCI-H460 = assay: cells; details: Homo sapiens, NCI-H460, 72 h
# Description: Antiproliferative activity against human NCI-H460 cells assessed as inhibition of cell proliferation incubated for 72 hrs by CCK8 assay
# RPMI-8226 [29] = assay: Induction of apoptosis in human RPMI8226 cells assessed as late apoptotic cells at 2 uM measured after 36 hrs by Annexin V-FITC based flow cytometry (reference value: 0.81%); assay type: functional
# RPMI-8226 [30] = assay: Induction of apoptosis in human RPMI8226 cells assessed as late apoptotic cells at 1 uM measured after 36 hrs by Annexin V-FITC based flow cytometry (reference value: 0.81%); assay type: functional
compound,measurement,setting,value
COc1ccc(-c2oc3c(CNCC4CCOCC4)c(O)ccc3c(=O)c2O)c(OC)c1,inhibition at 125 µM,RPMI-8226 [1],16%
O=c1c(O)c(-c2ccncc2)oc2c3c(ccc12)OCN(Cc1ccc(Cl)c(Cl)c1)C3,IC50,RPMI-8226 [2],27.6 µM
CN1CCC(N2COc3ccc4c(=O)c(O)c(-c5cccc(Cl)c5Cl)oc4c3C2)CC1,IC50,RPMI-8226 [2],4.29 µM
CCN(CC)Cc1c(O)ccc2c(=O)c(O)c(-c3cccc(Cl)c3Cl)oc12,IC50,RPMI-8226 [2],60.4 µM
O=c1c(O)c(-c2ccc(Cl)c(Cl)c2)oc2c3c(ccc12)OCN(CC1CCOCC1)C3,IC50,RPMI-8226 [2],4.81 µM
COc1ccc(-c2oc3c4c(ccc3c(=O)c2O)OCN(NCc2ccc(Cl)c(Cl)c2)C4)c(OC)c1,inhibition at 125 µM,RPMI-8226 [1],36%
COc1ccc(-c2oc3c(CN4CCCC4)c(O)ccc3c(=O)c2O)c(OC)c1,inhibition at 250 µM,RPMI-8226 [3],53%
O=c1c(O)c(-c2ccc(Cl)c(Cl)c2)oc2c(CN3CCOCC3)c(O)ccc12,IC50,RPMI-8226 [2],4.03 µM
COc1ccc(-c2oc3c(CN4CCOCC4)c(O)ccc3c(=O)c2O)c(OC)c1,inhibition at 125 µM,RPMI-8226 [1],25%
COc1ccc(-c2oc3c(CNC(Cc4ccccc4)C(=O)O)c(O)ccc3c(=O)c2O)c(OC)c1 (stereo not given),inhibition at 125 µM,RPMI-8226 [1],30%
COc1ccc(-c2oc3c(CNCC(=O)O)c(O)ccc3c(=O)c2O)c(OC)c1,IC50,RPMI-8226 [2],66.2 µM
COc1ccc(-c2oc3c(CC=C(C)C)c(O)cc(O)c3c(=O)c2O)cc1 [ICARITIN],IC50,RPMI-8226 [2],20.8 µM
O=c1c(O)c(-c2ccc(Cl)c(Cl)c2)oc2c3c(ccc12)OCN(Cc1ccncc1)C3,IC50,RPMI-8226 [2],5.9 µM
CCN(CC)Cc1c(O)ccc2c(=O)c(O)c(-c3ccc(OC)cc3OC)oc12,inhibition at 125 µM,RPMI-8226 [1],25%
COc1ccc(-c2oc3c(CNCc4cccc(F)c4)c(O)ccc3c(=O)c2O)c(OC)c1,inhibition at 125 µM,RPMI-8226 [1],19%
O=c1c(O)c(-c2cccc(Cl)c2Cl)oc2c(CN3CCOCC3)c(O)ccc12,IC50,RPMI-8226 [2],29.8 µM
O=c1c(O)c(-c2cccc(Cl)c2Cl)oc2c(CN3CCCC3)c(O)ccc12,IC50,RPMI-8226 [2],42.8 µM
COc1ccc(-c2oc3c4c(ccc3c(=O)c2O)OCN(C2CCN(C)CC2)C4)c(OC)c1,IC50,RPMI-8226 [2],44.8 µM
O=C(O)[C@@H]1CCCN1Cc1c(O)ccc2c(=O)c(O)c(-c3cccc(Cl)c3Cl)oc12,inhibition at 125 µM,RPMI-8226 [1],49%
COc1ccc(-c2oc3c(CNCc4ccccc4)c(O)ccc3c(=O)c2O)c(OC)c1,IC50,RPMI-8226 [2],14.9 µM
COc1ccc(-c2oc3c(CNCc4ccncc4)c(O)ccc3c(=O)c2O)c(OC)c1,IC50,RPMI-8226 [2],56.6 µM
O=c1c(O)c(-c2ccc(Cl)c(Cl)c2)oc2c3c(ccc12)OCN(Cc1cccc(F)c1)C3,Activity,RPMI-8226 [4],26.33%
same,Activity,RPMI-8226 [5],0.54%
same,Activity,RPMI-8226 [6],18.17%
same,IC50,MOLT-4,7.02 µM
same,viability at 4 µM,RPMI-8226 [7],13.9%
same,IC50,U-266,1.11 µM
same,Activity,RPMI-8226 [8],51.75%
same,Activity,RPMI-8226 [9],Active
same,inhibition in vivo at 200 mg/kg,RPMI-8226 [10],61.1%
same,Activity,RPMI-8226 [11],0.28%
same,Activity,RPMI-8226 [12],22.38%
same,Activity,RPMI-8226 [13],53.44%
same,IC50,HL-60,6.6 µM
same,viability at 2 µM,RPMI-8226 [14],29.4%
same,IC50,SiHa,> 10 µM
same,Activity,RPMI-8226 [15],24.26%
same,viability at 1 µM,RPMI-8226 [16],65%
same,Activity,RPMI-8226 [17],62.51%
same,IC50,MGC-803,> 10 µM
same,IC50,U2OS,> 10 µM
same,IC50,U-251,> 10 µM
same,IC50,RPMI-8226 [2],1.09 µM
same,Activity,RPMI-8226 [18],22.33%
same,Activity,RPMI-8226 [19],Dose-Dependent Effect
same,Activity,RPMI-8226 [20],25.18%
same,inhibition in vivo at 100 mg/kg,RPMI-8226 [21],45.4%
same,Activity,RPMI-8226 [22],Dose-Dependent Effect
same,IC50,HepG2,> 10 µM
same,Activity,RPMI-8226 [23],15.01%
same,Activity,[24],Non-Toxic
same,Activity,RPMI-8226 [25],55.5%
same,IC50,MCF7,8.68 µM
same,Activity,RPMI-8226 [26],1.55%
same,IC50,DLD-1,10 µM
same,Activity,RPMI-8226 [27],60.59%
same,Activity,RPMI-8226 [28],25.91%
same,IC50,NCI-H460,> 10 µM
same,Activity,RPMI-8226 [29],16.6%
same,Activity,RPMI-8226 [30],9.16%
